Read-outs that look alike come from different tables or passages of the source.
Tests used:
[1] = BBB permeability in vivo (LC-MS, brain over blood); set-up: species or system BalbC mice; conditions: mice, 50 mg/kg intraperitoneal, 30 min (AD-5584) or 1 h (AD-8007, VY-3-135)
Protocol: Human ACSS2 inhibitors were prepared in 10 mg/mL saline solution. BalbC 4–6 week-old mice were weighed and injected with 50 mg/kg or 100 mg/kg of drug saline solution via intraperitoneal injection. After 30 min or 60 min, mice treated with AD-5584 or AD-8007 and VY-3-135 were placed in isoflurane, and blood was extracted and perfused via intracardiac injection. Following perfusion, mice were decapitated, and their brains were rapidly removed into ice-cold PBS. For analysis of blood samples, 200 µL of blood was transferred and allowed to clot for 15 min at room temperature. Samples were precipitated at 16000xg for 1 min, and 50 µL of serum was transferred. To serum, 200 µL of methanol was added, and samples were centrifuged at 16000 g for 5 min. The supernatant was analyzed by LCMS. For analysis of brain samples, brains were homogenized via bead beating using four 2.3 mm stainless steel beads in 1 mL of MeOH and 0.5 mL of H2O. After centrifugation for 15 min at 3000xg, the supernatant was analyzed by LCMS. LCMS was performed on an Acquity I-Class UPLC system coupled to a Synapt G2Si HDMS mass spectrometer in positive ion mode with a heated electrospray ionization (ESI) source in a Z-spray configuration. […] Data was analyzed using Waters MassLynx and Waters Unifi. Calibration curves of authentic standards were used for quantification.

[2] = biological target: T1, ACSS2 (Homo sapiens, UniProt Q9NR19); assay: SPR binding to immobilized ACSS2; conditions: mean
T1 construct: His-tag (N); His-tag (C); made in house; host or cells: E. coli BL21 (DE3) RIL
T1 sequence (Q9NR19 whole entry): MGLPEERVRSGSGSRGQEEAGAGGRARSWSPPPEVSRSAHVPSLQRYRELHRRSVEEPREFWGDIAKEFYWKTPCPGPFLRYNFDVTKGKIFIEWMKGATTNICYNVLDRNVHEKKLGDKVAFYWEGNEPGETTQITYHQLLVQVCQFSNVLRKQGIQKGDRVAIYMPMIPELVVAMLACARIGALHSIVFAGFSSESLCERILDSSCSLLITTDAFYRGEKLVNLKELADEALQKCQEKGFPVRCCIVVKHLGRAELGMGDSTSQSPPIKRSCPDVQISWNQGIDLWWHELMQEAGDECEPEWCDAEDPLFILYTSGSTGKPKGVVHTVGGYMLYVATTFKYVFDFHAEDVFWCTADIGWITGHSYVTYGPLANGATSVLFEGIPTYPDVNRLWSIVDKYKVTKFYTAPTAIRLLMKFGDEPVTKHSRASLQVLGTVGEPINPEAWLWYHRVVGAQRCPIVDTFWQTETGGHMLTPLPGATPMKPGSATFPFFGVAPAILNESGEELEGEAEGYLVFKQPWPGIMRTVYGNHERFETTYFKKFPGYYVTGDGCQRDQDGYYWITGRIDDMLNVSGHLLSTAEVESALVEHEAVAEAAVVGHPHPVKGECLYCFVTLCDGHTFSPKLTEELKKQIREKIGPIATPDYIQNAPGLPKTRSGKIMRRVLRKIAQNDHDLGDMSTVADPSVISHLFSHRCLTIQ
Protocol: Overproduction of ACSS2 was achieved using a prokaryotic expression system. […] The bacterial expressions were then spun down, the supernatant discarded, and the pellets resuspended in 50 mM Tris HCl pH8.0, 800 mM NaCl, 5 mM Imidazole, 2 mM MgCl2, 10% Glycerol, 0.1 mg/mL Lysozyme, 1 mM Protease inhibitor (PMSF). After the cells were lysed via sonication, the sample was subjected to ultracentrifugation, and the clarified lysate was applied to a 5 mL Talon cobalt resin affinity column (Clonetech Laboratories, Mountain View, CA). The bound protein was washed with 300 mL wash buffer 1 (20 mM Tris HCl pH8.0, 800 mM NaCl, 15 mM Imidazole, 5 mM MgCl2, 10% Glycerol, 0.1% CHAPS) and 300 mL wash buffer 2 (20 mM Tris HCl pH8.0, 400 mM NaCl, 18 mM Imidazole, 5 mM MgCl2, 10% Glycerol) prior elution with 20 mM Tris HCl pH8.0, 400 mM NaCl, 300 mM Imidazole, 2 mM MgCl2, 5% Glycerol. Eluted ACSS2 was then dialyzed overnight into 20 mM Tris HCl pH8.0, 150 mM NaCl, 5% Glycerol, concentrated and applied to a Superdex S-200 (16/600) using the same buffer without Glycerol. ACSS2 fractions were pooled, concentrated to 3 mg/mL, aliquoted, and stored at −80°C. hACSS1 was obtained from a commercial vendor (www.mybiosource.com).
All binding assays were performed on a ProteOn XPR36 SPR Protein Interaction Array System (Bio-Rad Laboratories, Hercules, CA, United States). The instrument temperature was set at 25°C for all kinetic analyses. ProteOn GLH sensor chips were preconditioned with two short pulses each (10 s) of 50 mM NaOH, 100 mM HCl, and 0.5% sodium […]. Then, the system was equilibrated with running buffer (1x PBS pH 7.4, 3% DMSO, and 0.005% polysorbate 20). The surface of a GLH sensor chip was activated with a 1:100 dilution of a 1:1 mixture of 1-ethyl-3-(3-dimethylaminopropyl) carbodiimide hydrochloride (0.2 M) and sulfo-N-hydroxysuccinimide (0.05 M). Immediately after chip activation, the human ACSS2 or hACSS1 proteins were prepared at a concentration of 10 μg/mL in 10 mM sodium acetate, pH 5.5, and injected across ligand flow channels for 5 min at a flow rate of 30 μL/min. Then, after unreacted protein had been washed out, excess active ester groups on the sensor surface were capped by a 5 min injection of 1M ethanolamine HCl (pH 8.0) at a flow rate of 5 μL/min. A reference surface was similarly created by immobilizing a nonspecific protein (IgG b12 anti-HIV-1 gp120; was obtained through the NIH AIDS Reagent Program, Division of AIDS, NIAID, NIH: Anti-HIV-1 gp120 Monoclonal (IgG1 b12) from Dr. Dennis Burton and Carlos Barbas) and was used as a background to correct nonspecific binding. […] Data were analyzed using the ProteOn Manager Software version 3.0 (Bio-Rad). The responses from the reference flow cell were subtracted to account for the nonspecific binding and injection artifacts. Experimental data were fitted to a simple 1:1 binding model. Experiments were performed in triplicate to detect kinetic and equilibrium dissociation constants (KD).

For `N[C@H](C(=O)N1CCCC(c2ccccc2)(c2ccccc2)C1)C1CC1` [AD-8007], the “level of drug in the brain over blood” value [1] was “detected at significantly higher levels in the brain compared to VY-3-135”, the koff ([2]; 1:1 binding model, n=3, read-out: koff) was 0.547 s⁻¹ and the kon ([2]; 1:1 binding model, n=3, read-out: kon) was 4790 M⁻¹ s⁻¹. The Kd ([2]; 25°C, Langmuir isotherm equilibrium fit, n=3, read-out: KD equilibrium) was 117 µM and the Kd ([2]; global fit, n=3, read-out: KD kinetic/global) was 149 µM.

— publication PMC11137182, “Selective and brain-penetrant ACSS2 inhibitors target breast cancer brain metastatic cells” (Frontiers in Pharmacology, 2024)
